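Where inhibition never reached the appropriate level, the endpoint shown equals the highest concentration tested. Otherwise, values were interpolated linearly from a five-concentration, 48-hour dose response in 96-well plates. GI50 is the concentration that inhibits growth by half. TGI denotes the concentration required for complete inhibition of growth.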

Experiment in all cases: NCI anticancer screen, dose series, 48 h
Test [1] concerns ACHN renal.
For test [2], the system named is LOX IMVI melanoma.
The subject of test [3] is M14 melanoma.
Test [4] concerns MALME-3M melanoma.
Test [5] concerns RPMI-8226 leukemia.
Test [6] deals with SN12C renal.
Test [7] deals with SR leukemia.
In test [8] the test system is TK-10 renal.
In test [9] the test system is UACC-257 melanoma.
Test [10] deals with HCC-2998 colon.

In the case of `Oc1cn(-c2ccc(Cl)cc2)nc1-c1n[nH]c(=S)n1-c1ccc(F)cc1`, the GI50 in [1] was 28.8 µM; in test [2] it was 16.8 µM; in [3], 15.1 µM; in [4], 25.9 µM; in test [5] it was 22.2 µM; in test [6] it was 16.9 µM. In addition, the GI50 in [8] is 28.1 µM; in test [9], 24.2 µM. Besides, the TGI in test [1] is above 100 µM; in test [2], 43 µM; in [3], 45 µM; in test [4], above 100 µM; in test [5], above 100 µM; in test [6] it was 50.3 µM. For the same compound, the TGI in test [7] was above 100 µM; in [8] it was above 100 µM; in test [9], 77.4 µM.

As for `C1CN2CCO[SiH](O1)OCC2`, the TGI in test [1], in [10], in test [4], in test [5], in test [6] and in test [7] was above 100 µM throughout. Moreover, the TGI in [8] and in test [9] was above 100 µM each time.

Take `N#Cc1c(-c2ccccc2)c(-c2ccccc2)cc2c(=O)c3ccc(Cl)cc3[nH]c12`: the TGI in [1], in test [10], in [4], in test [5], in [6] and in test [7] was above 100 µM each time. Moreover, the TGI in test [8] and in [9] was above 100 µM in each case.

For the compound `Nc1nc(-c2ccccc2)c(CC(=O)O)s1`, the TGI in test [1], in [2], in [3], in [4], in [5] and in test [6] was above 100 µM throughout. Also, the TGI in [7], in [8] and in [9] was above 100 µM throughout.

For the compound `O=C(Nc1ccccc1C(=O)NC(=O)c1ccccc1NC(=O)c1ccccc1)c1ccccc1`, the TGI in [1] amounted to 36.3 µM; in test [2] it was 13.9 µM; in test [4], 12.1 µM; in test [5], 8.23 µM; in [6] it was 17.2 µM; in [7], 8.52 µM. Besides, the TGI in test [8] was determined as 25.9 µM; in test [9] it was 4.94 µM.

For the compound `CCOC(=O)c1cn(C)c2c(OC)c3ccccc3c(OC)c2c1=O`, the GI50 in test [1] was 46.8 µM; in [2], 20.7 µM; in test [3], 19.8 µM; in test [4], 8.95 µM; in test [5], 23.8 µM; in test [6] it was 28.1 µM. In addition, the GI50 in test [7] is 28.5 µM; in test [8], 30.1 µM; in [9], 16.6 µM. The TGI was above 100 µM in test [1]; 58.6 µM in test [2]; 45 µM in test [3]; 30.3 µM in [4]; above 100 µM in test [5]; 86.9 µM in test [6]. The TGI stood at 88.6 µM in test [7], 62 µM in test [8] and 40.6 µM in test [9].

In the case of `O=c1[nH]c(=S)[nH]c(O)c1/C=C1\C=Nc2ccccc21`, the GI50 in [1] is 11.4 µM; in [10], 11.4 µM; in test [2], 2.46 µM; in [3], 10.6 µM; in [5] it was 2.34 µM; in test [6], 7.95 µM. Moreover, the GI50 in test [7] was 1.72 µM; in test [8], 25.1 µM; in test [9], 14.2 µM. In addition, the TGI in [1] stood at 24.3 µM; in [10], 24.8 µM; in test [2], 11.1 µM; in test [3], 35.1 µM; in [5], 6.49 µM; in [6], 59.4 µM. In addition, the TGI in test [7] was 4.52 µM; in [8], above 100 µM; in test [9], 53.6 µM.

For the compound `Cc1ccccc1Nc1cc(O)c2c(=O)cc(-c3ccccc3)oc2c1`, the GI50 is 4.25 µM in test [1]; 2.75 µM in [2]; 2.39 µM in [3]; 2.43 µM in [4]; 2.87 µM in [5]; 4.05 µM in test [6]. For the same compound, the GI50 in test [7] is 0.395 µM. In addition, the TGI in [1], in [2], in [3], in test [4], in test [5] and in [6] was above 100 µM each time. The compound further had a TGI in [7] above 100 µM.

On to `N#Cc1ccccc1Sc1ccccc1N`, for which the TGI in test [1], in [2], in test [4], in test [6], in test [7] and in test [8] was above 100 µM in each case. Moreover, the TGI in test [9] is above 100 µM.

`COc1ccc(N(CC(=O)O)N=O)cc1`: the TGI in test [1], in [2], in test [3], in test [4], in [5] and in [6] was above 100 µM in each case. Further, the TGI in [7], in test [8] and in [9] was above 100 µM in each case.

For the origin of these results see PubChem BioAssay (NCI).
